Test results as given in US20080176909A1, “Methods for prevention and treatment of arteriosclerosis, hypertension and restenosis” (DAIICHI SANKYO COMPANY, LIMITED, priority 2003, published 2008).

How the values were obtained:
[1] = tested on: cuff-induced vascular damage model of wild-type mice (femoral artery); experiment: Cuff-induced vascular injury model: DNA synthesis (BrdU index) and neointima formation; format: in vivo; conditions: for effects on blood pressure: azelnidipine 0.1 to 1.0 mg/kg/day, olmesartan 0.5 to 3.0 mg/kg/day
Experimental: C57BL/6 mice aged 10 weeks were used. In a part of this study, AT1a receptor gene knock out (AT1aKO) mice were also used. Inflammatory vascular damage was induced in mice by loosely placing a polyethylene tube which was cut longitudinally to open the tube, around the femoral artery of mice. In the damaged artery, the following observations were determined. The usefulness of this model of vascular damage to analyze vascular remodeling has been previously reported (Physiol. Genomics., 2, pp. 13-30, 2000; Circulation, 104, pp. 2716-2721, 2001; Circulation, 106, pp. 847-853, 2002).
A paraffin-embedded section of the damaged artery was prepared 14 days after cuff placement, Elastica van Gieson staining was carried out, and the cross-sectional area of the neointima and tunica media of the blood vessels was determined by image analysis software. For quantification of DNA synthesis, bromodeoxyuridine (BrdU) was injected into the mice 7 days after cuff placement and BrdU index calculated from incorporation into the nuclei of the cells was calculated.
(§1) (3) Olmesartan, an AT1 receptor blocker, was intraperitoneally injected into wild-type mice by an osmotic minipump, and the dose-dependency of olmesartan was investigated as described in (2). Oral administration of azelnidipine to the wild-type mice was started after cuff placement, and dose-dependency of azelnidipine was investigated as described in (2). (4) Both olmesartan and azelnidipine were simultaneously administered to wild-type mice, and the effects of co-administration of olmesartan and azelnidipine were compared with those of administration of either olmesartan or azelnidipine alone as described in (2). Effects of olmesartan and azelnidipine were investigated at effective doses of either olmesartan or azelnidipine alone and at insufficient doses to elicit significant effects by either olmesartan or azelnidipine alone, so as to determine synergistic effects of these two agents. (5) By using cultured rat vascular smooth muscle cells, the effects of co-treatment of olmesartan and azelnidipine on facilitation of DNA synthesis following stimulation by angiotensin II (determined by incorporation of [^3H]thymidine) were investigated.

[2] = tested on: cultured rat vascular smooth muscle cells; experiment: DNA synthesis ([3H]thymidine incorporation) following stimulation by angiotensin II; format: cell-based; conditions: for DNA synthesis of cultured rat vascular smooth muscle cells: low doses, alone or co-administered
Source text: as §1

[3] = tested on: apolipoprotein E (ApoE) knock out mice; experiment: Antihypertensive effects, systolic blood pressure on high fatty diet; format: in vivo; conditions: for Systolic blood pressures: 3 mg/kg of each agent oral for 24 weeks, measured 21 to 24 hours after administration in the 23rd week, mean±S.E.; for hypotensive effects: 3 mg/kg of each agent, Dunnett's multiple comparison test
Experimental: Male apolipoprotein E (ApoE) knock out mice aged 12 weeks were divided into 4 groups (15 mice per group) as following: control group (0.5% carboxymethylcellulose (CMC) solution administered group), olmesartan medoxomil (3 mg/kg) administered group, azelnidipine (3 mg/kg) administered group, and olmesartan medoxomil (3 mg/kg) plus azelnidipine (3 mg/kg) administered group. Either test substance or vehicle (0.5% CMC solution) was orally administered to animals for 24 successive weeks. A high fatty diet (containing 0.15% cholesterol and 15% unsalted butter) was given to all mice in all groups following the start of test agent administration (12 weeks of age). The systolic blood pressure of all mice was measured by a non-preheating type blood pressure monitor (BP MONITOR FOR RATS & MICE, Model MK-2000, Muromachi Kikai Co., Ltd.) at 21 to 24 hours after drug administration in the 23rd week. The results are shown in Table 3 (values in the table indicate mean±S.E.).

[4] = low doses: 0.1 mg/kg/day azelnidipine, 0.5 mg/kg/day olmesartan, alone or at the same time

Structure (SMILES): CC1=C(C(=O)OC(C)C)C(c2cccc([N+](=O)[O-])c2)C(C(=O)OC2CN(C(c3ccccc3)c3ccccc3)C2)=C(N)N1 (racemic) [Azelnidipine, (±)-2-amino-1,4-dihydro-6-methyl-4-(3-nitrophenyl)-3,5-pyridine-dicarboxylate-3-(1-diphenylmethylazetidin-3-yl)ester 5-isopropylester]
- effects on blood pressure [1]: without any effects on blood pressure
- increase in DNA synthesis of vascular smooth muscle cells (BrdU index) ([1]; dose range: azelnidipine 0.1 to 1.0 mg/kg/day oral, olmesartan 0.5 to 3.0 mg/kg/day intraperitoneal osmotic minipump, 7 days after cuff placement): inhibited by azelnidipine in a dose-dependent manner
- potentiation of neointima formation in the blood vessels ([1]; dose range: azelnidipine 0.1 to 1.0 mg/kg/day oral, olmesartan 0.5 to 3.0 mg/kg/day intraperitoneal osmotic minipump, 14 days after cuff placement): inhibited by azelnidipine in a dose-dependent manner
- increase in DNA synthesis of vascular smooth muscle cells (BrdU index) [1, 4]: did not elicit any significant effects
- potentiation of neointima formation in the blood vessels [1, 4]: did not elicit any significant effects
- facilitation of DNA synthesis following stimulation by angiotensin II ([2]; concentration dependence, [3H]thymidine incorporation): suppressed by administration of azelnidipine in a concentration-dependent manner
- DNA synthesis of cultured rat vascular smooth muscle cells [2]: insufficient to elicit any effects alone
- Systolic blood pressures [3]: 127 ± 4 mmHg
- hypotensive effects [3]: did not elicit any significant effects

Structure (SMILES): CCCc1nc(C(C)(C)O)c(C(=O)OCc2oc(=O)oc2C)n1Cc1ccc(-c2ccccc2-c2nnn[nH]2)cc1 [Olmesartan medoxomil, (5-methyl-2-oxo-1,3-dioxolen-4-yl)methyl 4-(1-hydroxy-1-methylethyl)-2-propyl-1-[[2′-(1H-tetrazol-5-yl)biphenyl-4-yl]methyl]imidazol-5-carboxylate]
- effects on blood pressure [1]: without any effects on blood pressure
- increase in DNA synthesis of vascular smooth muscle cells (BrdU index) [1, 4]: did not elicit any significant effects
- potentiation of neointima formation in the blood vessels [1, 4]: did not elicit any significant effects
- DNA synthesis of cultured rat vascular smooth muscle cells [2]: insufficient to elicit any effects alone
- Systolic blood pressures [3]: 121 ± 4 mmHg
- hypotensive effects [3]: did not elicit any significant effects
